According to US20250352524A1, “PREVENTION OF METASTATIC OUTGROWTH USING TEAD INHIBITORS” (Georgetown University, priority 2024, published 2025):
“Also recorded” adds a separate entry of the source.

System: naïve C57/BL6 mice
Assay: Tumor naïve C57/BL6 mice treated for two weeks, lung immune microenvironment
Assay type: in vivo
Procedure: To determine iTEAD effect on lung immune microenvironment at steady state, naïve C57/BL6 mice were treated with iTEAD. […] In the absence of cancer cells in these naïve mice, no change in CD8+ T-cells was observed between treatment groups. […] On the cancer cell front, TEAD inhibition had no effect on proliferation yet reduced migration and 3D spheroid collective invasion of breast cancer cells in vitro.
To investigate how TEAD inhibition influences the immune microenvironment in the normal lung, C57BL/6 mice were treated with 30 mg/kg of VT107 or vehicle control via oral gavage for 2 weeks. Lung, spleen and blood tissues were harvested for immune cell analysis and RNA-sequencing (FIG. 9, Panel G). […] RNA-seq data was analyzed by Cibersortx (Chen et al., 2018) to deconvolute the abundance of immune cell types in the lung tissue using single-cell RNA-seq datasets.
Due to the shifts in immune signaling observed in the lung tissue upon TEAD inhibition (FIG. 9), immune cell populations were first analyzed by flow cytometry in the lungs and spleens of tumor naïve mice. Consistent with the Cibersort analysis of RNA-seq data, there was a decrease in the monocytes population and an increase in the tissue-resident alveolar macrophages (AM) (FIG. 10, Panel A). […] Next, it was sought to determine the specific effects of iTEAD treatment on lung resident versus bone-marrow derived macrophages, as the dynamics of these cell populations are crucial for the establishment of the metastatic niche (Ries et al., 2014; Qian et al., 2011). Macrophages were retrieved from the lungs by isolating F4/80+ cells, a specific marker for murine macrophages, by FACS (fluorescence-activated cell sorting) as well as bone marrow-derived macrophages from the femurs of naïve C57BL/6 mice that were then differentiated in vitro using macrophage colony stimulating factor (M-CSF). Macrophages were treated with 1 μM of VT107 for 24 hours before the conditioned media was collected and analyzed on a cytokine array. […] There was no change in the level of the other cytokines detected (FIG. 10, Panel B).
Single cell suspensions were washed 2× with PBS. Cells were then stained with Zombie NIR Fixable Viability Kit (Biolegend, 423106) or Zombie Aqua Fixable Viability Kit (Biolegend, 423102) for 20 minutes at room temperature, to identify dead cells. Next, cells were washed with FACS buffer (1×PBS+2% FBS) and incubated with conjugated antibodies binding to cell surface proteins, at 4 °C for 30 minutes. A combination of the following antibodies were used: anti-CD45-Spark Blue 550 (Biolegend, 103166), anti-CD3-PercP/Cy5.5 (Biolegend, 100217), anti-CD4-Pacific Blue (Biolegend, 116007), anti-CD8-BV785 (Biolegend, 100750), anti-CD25-BV650 (Biolegend, 102038), anti-CD45-AF700 (Biolegend, 103128), anti-CD45R (B220) (Biolegend, 563103), anti-SiglecF-APC (Miltenyi Biotec, 130-102-241), anti-CD11b-PE/Dazzle (Biolegend, 108745), anti-CD11c-FITC (Biolegend, 117306), anti-F480-PE/Cy7 (Biolegend, 123114), anti-Ly6G-BV785 (Biolegend, 127645), anti-Ly6C-BV570 (Biolegend, 128030), anti-CD206-AF700 (Biolegend, 141734), and anti-CD86-AF488 (Biolegend, 105018). Cells were fixed and permeabilized using the BD Cytofix/Cytoperm Fixation/Permeabilization Kit (BD Biosciences, #554714) prior to incubation with anti-Foxp3-AF647 (Biolegend, 126407), anti-Gata3-PE (Biolegend, 653803), anti-RORy t-BV421 (Biolegend, 562894), and anti-T-bet-BV711 (BD Biosciences, 4B10). After staining, cells were washed 2× and subjected to flow cytometry analysis using the BD FACSymphony Δ3 flow cytometer analyzer. Results were analyzed using FCS Express 7 Research (De Novo Software).
The total RNA from tissue or cell lines was extracted using RNeasy Mini Kit (Qiagen, #74104) according to the manufacturer's instructions. Total RNA integrity was assessed with the Agilent 2100 Bioanalyzer. The library preparation and next-generation sequencing (NGS) were performed at Novogene Corporation Inc. (Sacramento, CA, USA). […]

[1] = 30 mg/kg oral gavage 2 weeks, flow cytometry

For VT107, the “alveolar macrophages in the lungs” value [1] was “increase”, the “infiltrating monocytes/macrophages in the lungs” value [1] was “decrease” and the “alveolar macrophages in the lungs” value (30 mg/kg oral gavage 2 weeks, flow cytometry, listed as iTEAD) was “robust increase; also recorded: shift”. The leukocytes fraction (Cibersortx of RNA-seq) was “slight increase”, the “monocyte fraction in lung tissue” value (Cibersortx of RNA-seq) was “reduced” and the “myeloid cells' fraction including tissue resident macrophages” value (Cibersortx of RNA-seq) was “expanded”. For the same substance, the “IL12 signaling pathway in lung” value (Ingenuity pathway analysis) was “increase”, the “inflammation (cytokine storm, S100 family, wound healing and fibrosis signaling pathways) in lung” value (Ingenuity pathway analysis) was “overall reduction” and the “lung gene expression, downregulated compared to upregulated genes” value (RNA-sequencing) was “significantly higher number of downregulated genes”. The spleen gene expression (RNA-sequencing) was “minimal changes”, the “CD3+ cells in tumor naïve lungs” value (flow cytometry) was “increase” and the “CD4+ or CD8+ T-cell populations in tumor naïve lungs” value (flow cytometry) was “not specifically”. The “total macrophages, dendritic cells, eosinophils or neutrophils” value (flow cytometry, analyzed tissues) was “No significant change”, the “alveolar macrophages and infiltrating monocytes/macrophages in spleen or blood” value (flow cytometry, listed as iTEAD) was “no change” and the “CD8+ T-cells” value (naïve mice, between treatment groups) was “no change”.
